Key:
[1] = tested on: MB231 and TXBR100 cells; assay: Matrigel cell invasion assay; type: cell-based; details: Homo sapiens, niclosamide 2.5 μM, 24 h, read-out: inhibition of cell invasion and migration
Experimental: The effect of niclosamide on cell invasion was monitored using Corning® BioCoat™ Matrigel® Invasion assay kit according to the manufacturer’s instructions. Briefly, cells were serum-starved and their invasion to the other side of the membrane was analyzed in the presence or absence of niclosamide for 24 h. At the end of this treatment, non-invaded cells on the top side of the membrane were removed by scrubbing. Cells which invaded the other side of the membrane were fixed with 100% methanol, stained with crystal violet and counted under an inverted microscope; images were also captured.

[2] = tested on: TNBC cells (MB231 and TXBR100); assay: Colony formation (clonogenic) assay; type: cell-based, human; details: niclosamide 0.5 μM, 10 days
Excerpt: We performed the colony formation (clonogenic) assay with different doses of niclosamide on two different TNBC cell lines. Initial seeding was done with 500 cells/well and culture was continued for 10 days with culture medium replaced with fresh medium with freshly prepared niclosamide every other day. At the end of the 10-day time period, the medium was removed and the colonies were fixed with ice-cold methanol/acetone and then stained with Giemsa stain.

[3] = tested on: TNBC cells (MB231 and TXBR100); assay: MTT cell proliferation / viability assay; type: cell-based, human; details: niclosamide 2 μM, 72 h, MB231 and TXBR100
Experimental: Cells were seeded in 96-well plates; after 24 h, niclosamide treatment was initiated. Cells were then cultured for 72 h with fresh medium containing freshly prepared niclosamide supplied every 24 h. Cells were washed with phosphate-buffered saline twice followed by MTT reagent (ATCC). Treatment and lysis of the cells were done as per the manufacturer’s instructions. Absorbance of the lysate was measured at 550 nm. Cell viability assay with various cell-death inhibitors was also performed as described above. Cells were treated with niclosamide (1 µM) along with cell death inhibitors (10 µM), except hydroxychloroquine (25 µM) for 48 h.

[4] = tested on: MB231 cells and TXBR100 cells; assay: Lipid radical (ferroptosis) assay with LipiRadical Green; type: cell-based, human; details: niclosamide 5 μM; MB231 30 min, TXBR100 2 h
Experimental: Lipid radical (ferroptosis) assay and iron assay were performed as follows. Cells were cultured on a 25 mm glass coverslip until they reached 60–70% confluency (~48 h). At the time of the experiment, cells were washed with NaCl buffer, pH 7.5 and then incubated with 1 µM of LipiRadical Green (a lipid radical detection reagent, FDV-0042, Funakoshi, Tokyo, Japan) or Ferro-orange (an iron detection probe, F374, Dojindo, Rockville, MD, USA) in NaCl buffer, pH 7.5 for 20 min and then washed with NaCl buffer, pH 7.5. To analyze the effects of modifiers of iron levels and lipid peroxidation, the cells were co-treated with the modifiers and the respective fluorescent probe for 20 min and then washed. The glass coverslip containing the cells was then probed under an inverted microscope. The fluorescence imaging was captured using a Nikon T1-E microscope with A1 confocal super-resolution module (Nikon, Dallas, TX, USA), with a 60× objective, at 488 nm. The images represent a maximum projection intensity derived from a Z-stack. The fluorescence quantification was performed by measuring the corrected total cell fluorescence (CTCF) using Image J (version: 2.14.0/1.54f) and the following formula; CTCF = (integrated density) − (area of cell of interest) × (mean fluorescence of background).

[5] = tested on: MB231 cells and TXBR100 cells; assay: Cellular glutathione levels (GSH-Glo assay); type: cell-based, human; details: niclosamide 2 μM, 24 h; MB231 and TXBR100
Experimental: Control and niclosamide-treated cells were used for measurement of cellular glutathione levels as instructed in the manufacturer’s protocol (GSH-Glo assay, Promega, Madison, WI, USA). The levels of malondialdehyde were measured using lipid peroxidation kit [Lipid Peroxidation (MDA) Assay Kit (MAK085), Millipore-sigma, St. Louis, MO, USA].

[6] = tested on: MB231 and TXBR100 cells; assay: Reactive oxygen species assay (DCFH-DA); type: cell-based, human; details: niclosamide 2.5 and/or 5 μM, 24 h
Experimental: The probe of DCFH-DA was used to measure ROS. Briefly, cells were grown in a 96-well plate and then incubated with DCFH-DA (10 µM) at 37 °C for 30 min in dark. At the end of the incubation, cells were treated with different concentrations of niclosamide. Fluorescence intensity was monitored with a Microplate Reader (Glomax multi-detection system, Promega, Madison, WI, USA) at the excitation and emission wavelengths of 485 and 528 nm, respectively. Cellular fluorescence levels were expressed as % of control group (i.e., no treatment with niclosamide).

[7] = tested on: GPX4, FTH1, p-S6K; assay: Western blot of GPX4, ferritin heavy chain and p-S6K in TNBC cells; type: cell-based, human; details: niclosamide 2 μM, 24 h
Experimental: Cells and tumor tissues were lysed in Pierce™ RIPA buffer (ThermoFisher Scientific, Waltham, MA, USA) supplemented with Halt™ Protease and Phosphatase Inhibitor Cocktail (ThermoFisher Scientific, Waltham, MA, USA). Homogenates were centrifuged, and supernatants were used for protein measurement via Pierce™ BCA Protein Assay Kit (ThermoFisher Scientific, Waltham, MA, USA). […] Western blot samples were prepared in Laemmli sample buffer (Bio-Rad Laboratories, Hercules, CA, USA). They were loaded onto a SDS–PAGE gel and transferred onto a PVDF membrane (Bio-Rad Laboratories, Hercules, CA, USA). The membrane was blocked and antibodies diluted in 5% nonfat dry milk (Bio-Rad Laboratories, Hercules, CA, USA) or in 5% bovine serum albumin (Irvine Scientific, Santa Ana, CA, USA) were used. Protein bands were visualized using Pierce™ ECL Western Blotting Substrate (ThermoFisher Scientific, Waltham, MA, USA) and developed on the autoradiography film (Santa Cruz, Dallas, TX, USA). Primary antibodies were purchased either from Cell Signaling (Danvers, MA, USA) [anti-GPX4 (#52455), anti-FTH (#4393), anti-HSP60 (#12165), anti-phospho-p70S6K (#9205), anti-p70S6K (#2708)] or from Abcam (Waltham, MA, USA) [Nrf2 (#ab62352)]. Secondary antibody Horseradish peroxidase-conjugated goat anti-rabbit IgG (#1706515) was purchased from Bio-Rad Laboratories (Hercules, CA, USA). For quantification of protein levels by the densitometric analysis, the experiment was carried out in triplicate and the data were collected from the resultant three Western blots.

[8] = parameters: method as in PMID 31078739, PMID 33737681; details: oral; cited from earlier work

O=C(Nc1ccc([N+](=O)[O-])cc1Cl)c1cc(Cl)ccc1O [niclosamide]
inhibition at […] [1]: > 75%
decrease in colony formation [2]: > 50%
decrease in cell proliferation [3]: > 50%
ferroptosis (lipid radical fluorescence) [4]: induced ferroptosis
decrease in glutathione levels [5]: 60–70%
ROS levels [6]: increase
glutathione peroxidase 4 protein levels ([7]; MB231 and TXBR100): decreased
ferritin levels ([7]; MB231 and TXBR100 (more pronounced in TXBR100)): lower
p70S6K and phospho-p70S6K levels (mTOR signaling) ([7]; both TNBC cell lines): profound decrease
bioavailability when given orally [8]: low
